Key:
[1] = tested on: liver stages of Plasmodium falciparum; assay: In vitro activity against liver stages of P. falciparum in human primary hepatocytes; type: cell-based; settings: for therapeutic index TI=TC50/IC50: P. falciparum liver stages, human hepatocytes; for IC50: Plasmodium falciparum, Hepatocyte, 120 h, human primary hepatocytes, 5 days, SkE mean of two experiments
Method: (§1) The in vitro activity of SkE against the pre-erythrocytic stages was tested on different Plasmodium species. […] The in vitro assays were carried out using cultures of human primary hepatocytes (HH) or mouse primary hepatocytes (MH), respectively. The primary cells were isolated by collagenase perfusion of pieces of liver (obtained from humans or from female Swiss mice, respectively), followed by purification of the separated cells on a percoll gradient. The hepatocytes were seeded into 96-well microplates (35 000 MH/well and 82 500 HH/well) and maintained in culture at 37° C. and 5% CO2 in a William medium supplemented with 10% FCS (Hyclone), 100 U/ml of penicillin, […] of streptomycin, 2 mM of glutamine, 5 μg/ml of insulin and 5×10^−7 M of hydrocortisone hemisuccinate. A stock solution of SkE was prepared in DMSO at 200 mg/ml, and then diluted in complete medium described above so as to obtain the desired concentrations. The hepatocytes were infected with P. yoelii sporozoites (30 000) or P. falciparum sporozoites (40 000). The SkE compound was added simultaneously with sporozoites at various concentrations. The culture medium was then replaced 3 h after the inoculation of the sporozoites, and then every day. The cultures were fixed 48 hours after the infection for P. yoelii, and 5 days after infection for P. falciparum. The inhibitory effect of the compound was quantified, after fluorescent immunolabeling of the liver schizonts with a mouse serum directed against PfHSP70, by fluorescence microscopy analysis.

[2] = tested on: primary rodent hepatocytes; assay: In vitro cytotoxicity on primary rodent hepatocytes, MTT assay; type: cell-based, mouse; settings: the other two experiments; highest concentration tested 5.54 μM
Method: (§2) In parallel, the cytotoxicity of the compound was evaluated on human and rodent hepatocytes treated under the same conditions as in the assays for activity of the test compound, by means of the MTT (tetrazolium) colorimetric assay (Mosmann et al., 1983). After incubation of the primary rodent or human hepatocytes for 2 days or 5 days, respectively, with the various concentrations of the test compound, 100 μl of MTT solution ([…]) were added to each well. The plates were then incubated for 4 hours at 37° C. The formazan crystals were then dissolved in 100 μl of DMSO-ethanol mixture (V/V). The optical density was measured by spectrophotometry at 540 nm. The results are expressed as percentage cell viability relative to the untreated control.

[3] = as above; type: cell-based, mouse; settings: Swiss, mouse, primary hepatocytes; one of the 3 experiments carried out; read-out: cytotoxicity IC50 on murine hepatocytes
Method: as §2

Vero cells = assay: Cytotoxicity on Vero cells, tritiated hypoxanthine incorporation; type: cell-based, monkey; settings: for toxicity compared with Simalikalactone D: mammalian cell lines (Vero cells)
Method: (§3) This evaluation is carried out on two cell types, the MCF-7 line, which is a mammary tumor cell line, and Vero cells (monkey kidney cells).
(§4) VERO cells are monkey kidney epithelial cells. They are cultured in the same way as the MCF-7, but in EMEM medium supplemented with 10% FCS, nonessential amino acids, sodium pyruvate, HEPES and glutamine.
(§5) The evaluation of cytotoxicity follows the same method as the antimalarial activity test, but with P. falciparum being replaced with the MCF-7 or VERO cells.
(§6) However, there are a few minor modifications, owing to the different mode of culture. This is because the cells used for the cytotoxicity tests are adherent cells and their growth is slower. Consequently, they are seeded in 96-well plates 24 hours before they are brought into contact with the test products. After 24 h, the cells adhere to the bottom of the well, the medium is changed, and then the test molecules are added, the dilution thereof being carried out in complete medium. The medium used depends on the cells used (DMEM or EMEM).
(§7) In the same way as for the antimalarial activity test, tritiated hypoxanthine is added 24 hours after bringing into contact with the products, and the plate is placed in the freezer 48 hours later. Finally, the radioactivity is measured as for the antimalarial activity test. The evaluation of the IC50 values is carried out graphically as for that of P. falciparum.

[4] = as above; type: cell-based, monkey; settings: monkey, Vero cells (monkey kidney epithelial cells)
Method: as §3, §4, §5, §6, §7

P. vinckei petteri = assay: Antimalarial activity in vivo, mice infected with P. vinckei petteri (Peters test); parameters: species or system Plasmodium vinckei petteri; settings: for survival of the mice compared with chloroquine: IP route; for ED50, dose inhibiting 50% of the growth of P. vinckei petteri: mice, 4 days
Method: The antimalarial activity of SkE was evaluated on female Swiss mice (22 g±2) infected with P. vinckei petteri. Before infection of the mice having been used for the test, the parasites were thawed, injected and maintained by passaging in two batches of mice. The parasitized blood was taken from the retro-orbital sinus and each mouse of the study was infected with 2×10^7 parasites intraperitoneally. The infected animals were divided up into batches of 5 per cage and were treated intraperitoneally each day for 4 days. The SkE was tested at 4 concentrations prepared in 90% DMSO (intraperitoneal route) or carboxymethylcellulose (oral route) in such a way that each mouse receives 200 μl of preparation. The experiment included control parasitized mice receiving 200 μl of 90% DMSO or CMC alone orally, and 3 batches of 5 mice, each of these batches being treated with solutions of chloroquine at 1, 5 and 10 mg/kg diluted in PBS (IP).
At the end of the treatment (5 d after the infection), a blood smear was performed from a drop of blood originating from the tail of each mouse, fixed with methanol and stained with Giemsa. The slides were examined under a microscope and the parasitemia counted for 10 000 red blood cells.
The survival of the mice was monitored for 21 days.

[5] = tested on: liver stages of Plasmodium yoelii; assay: In vitro activity against liver stages of P. yoelii in mouse primary hepatocytes; type: cell-based; settings: for IC50: Plasmodium yoelii, Hepatocyte, liver stages, 48 hours, SkE mean of three experiments, read-out: IC50 on murine hepatocytes infected with P. yoelii
Method: as §1

[6] = tested on: P. falciparum (F32 Tanzania, FcB1 Colombia, W2 Indochina strains); assay: Antiplasmodial activity in vitro, tritiated hypoxanthine incorporation; type: cell-based; settings: Plasmodium falciparum, 48 h, read-out: IC50, inhibits 50% of the growth of P. falciparum in culture
Method: The following three strains of Plasmodium falciparum were used: • chloroquine-sensitive F32 Tanzania • chloroquine-resistant FcB1 Colombia • W2 Indochina.
The antimalarial activity of the various products is evaluated by means of the radioactive method using tritiated hypoxanthine, described by Desjardins et al., with the modifications introduced by Benoit et al. (Desjardins R. E. et al., Antimicrob. Agents Chemother, 1979, 16: 710-718; F. Benoit et al. Trans. Roy. Soc. Trop. Med. Hyg. 89: 217-218).
The test is carried out in 96-well culture plates (supplier: TPP, Switzerland) on cultures mainly at the ring stage. The parasites are brought into contact with the products for 48 h at 37° C. and 5% CO2. The growth of the parasite is then estimated by following tritiated hypoxanthine incorporation into the nucleic acids of the parasite. The IC50 values are determined graphically on curves of percentage inhibition of growth as a function of concentration. Thus, the antimalarial activity of SkE was evaluated according to the following protocol. […]
The filter is then placed in a cassette which is placed in the β-counter in order to measure the radioactivity. […]

[7] = Cytotoxicity on THP1 cells; type: cell-based; settings: human
[8] = Vero cells versus P. falciparum

| SMILES | therapeutic index TI=TC50/IC50 [1] | IC50 [1] | cytotoxicity on murine hepatocytes at highest concentration tested [2] | IC50 at 2 days [3] | IC50 (Vero cells; Primates, Vero cells, read-out: inhibits 50% of the growth of Vero mammalian cells) | selectivity index (Vero cells; [8]) | selectivity index with respect to P. falciparum compared with SkD (Vero cells; [8]) | toxicity compared with Simalikalactone D (Vero cells) | toxicity compared with Simalikalactone D (Vero cells; listed as Simalikalactone E) | IC50 at 72 h [4] | survival of the mice compared with chloroquine (P. vinckei petteri; all doses, p<0.05) | survival of the mice compared with chloroquine (P. vinckei petteri; dose of 1 mg/kg/d) | mean survival time of the mice (P. vinckei petteri; ip at 1 mg/kg/day, monitored for 3 weeks, one experiment) | ED50, dose inhibiting 50% of the growth of P. vinckei petteri (P. vinckei petteri; intraperitoneally) | ED50, dose inhibiting 50% of the growth of P. vinckei petteri (P. vinckei petteri; orally) | IC50 [5] | activity relative to primaquine on P. yoelii liver stages ([5]; fold more active than primaquine, same conditions) | IC50 [6] | IC50 [7] |
| --- | --- | --- | --- | --- | --- | --- | --- | --- | --- | --- | --- | --- | --- | --- | --- | --- | --- | --- | --- |
| CCC(C)C(=O)O[C@@H]1[C@H]2C(C)=CC(=O)[C@@H](O)[C@]2(C)[C@H]2[C@@H](O)[C@H](O)[C@@]3(C)OC[C@@]24[C@@H]1OC(=O)[C@H](OC(=O)C(C)CC)[C@@H]34 (some centres unmarked) [SkE, Simalikalactone E] | 75 | 1200 ± 190 nM | no toxicity was observed | 1120 nM | 6570 nM | greater than 100 | twice that of SkD | less than that of SkD | less toxicity than Simalikalactone D | 6000 nM | always better than that of the mice treated with CQ at the doses of 1 | equivalent to what is obtained for CQ at 10 mg/kg/d | greater than 18.6 days | 0.5 mg/kg/day | 1 mg/kg/day | 186 ± 16 nM | at least 3 times | 24 to 68 nM | 33 nM |
| CCN(CC)CCCC(C)Nc1ccnc2cc(Cl)ccc12 (centres unmarked) [chloroquine, reference compound] |  |  |  |  |  |  |  |  |  |  |  |  |  | 3 mg/kg/day |  |  |  |  |  |
| COc1cc(NC(C)CCCN)c2ncccc2c1 (centres unmarked) [primaquine, reference compound] | 81 | 800 nM |  |  |  |  |  |  |  |  |  |  |  |  |  | 640 nM |  |  |  |

— patent US8604220B2, “Isolation of Simalikalactone E and use thereof as a medicament, in the treatment of malaria” (priority 2009, dated 2013)
